# According to ChEMBL document CHEMBL1128363, “Design, synthesis, biology, and conformations of bicyclic alpha-melanotropin analogues” (J Med Chem, 1995):
# Active and inactive are the calls of the source. The rule behind the calls is not given here. Where a SMILES comes first, the peptide text is derived from it. [ ]: non-standard residue; d: D form.
# How the values were obtained:
# Assay type in all cases: functional
# [1] = tested on: frog; test: Potency of compound was measured in frog
# [2] = Activity expressed as EC50 was measured in frog.
# [3] = tested on: frog; test: Potency measured in frog where (-) indicates peptide is not long acting.
# [4] = Activity expressed as EC50 was measured in lizard.
# [5] = tested on: lizard; test: Potency measured in lizard where (+) indicates peptide is long acting and (-) indicates peptide is not long acting.
# [6] = tested on: lizard; test: Potency of compound was measured in lizard where (-) indicates peptide is not prolonged acting.
# [7] = tested on: frog; test: Potency of compound was measured in frog; Inactive
# [8] = Activity of compound expressed as EC50 was measured in frog; Inactive
# [9] = tested on: lizard; test: Potency of compound was measured in lizard; Inactive
# [10] = Activity of compound expressed as EC50 was measured in lizard; Inactive
# [11] = tested on: frog; test: Potency of compound was measured in frog where (+) indicates peptide is prolonged acting and (-) indicates peptide is not prolonged acting.
# [12] = tested on: frog; test: Potency measured in frog where (+) indicates peptide is long acting.
# [13] = tested on: lizard; test: Potency of compound was measured in lizard where (+) indicates peptide is prolonged acting.
Structure (SMILES),EC50 [2] [nM],EC50 [4] [nM],Potency [3],Potency [5],also measured
CC(=O)N[C@@H](Cc1cnc[nH]1)C(=O)N[C@H](Cc1ccccc1)C(=O)N[C@@H](CCCNC(=N)N)C(=O)N[C@@H](Cc1c[nH]c2ccccc12)C(N)=O,150,10,0.001,,Potency [6]: 0.1
CC(=O)N[C@@H](Cc1c[nH]cn1)C(=O)N[C@@H](Cc1ccccc1)C(=O)N[C@@H](CCCN=C(N)N)C(=O)N[C@@H](Cc1c[nH]c2ccccc12)C(N)=O,30000,15000,5e-06,,Potency [6]: 0.0014
CC(=O)N[C@@H](Cc1c[nH]cn1)C(=O)N[C@H](Cc1ccccc1)C(=O)N[C@@H](CCCN=C(N)N)C(N)=O,,,,,Potency [7]: inactive; EC50 [8]: Not Active; Potency [9]: inactive; EC50 [10]: Not Active
N=C(N)NCCC[C@H]1NC(=O)[C@@H](Cc2ccccc2)NC(=O)[C@@H](Cc2c[nH]cn2)NC(=O)CNC(=O)CNC(=O)[C@H](Cc2c[nH]c3ccccc23)NC1=O,1200,,,,
CCCC[C@H](NC(C)=O)C(=O)NC1CCCNC(=O)CC[C@H](C(=O)N[C@@H](Cc2c[nH]c3ccccc23)C(=O)NCC(=O)N[C@@H](CCCCN)C(N)=O)NC(=O)[C@@H](Cc2ccccc2)NC(=O)[C@@H](Cc2c[nH]cn2)NC1=O (stereo in doubt),1000,,0.001,,Potency [9]: inactive
CC(=O)N[C@H](Cc1ccccc1)C(=O)N[C@@H](CCCN=C(N)N)C(=O)N[C@@H](Cc1c[nH]c2ccccc12)C(N)=O (Ac-[dF]-Arg-Trp-NH2),10000,1000,,,Potency [12]: 1e-05; Potency [13]: 0.001
CC(=O)N[C@@H]1CSSC[C@H]2NC(=O)[C@@H](Cc3c[nH]c4ccccc34)NC(=O)[C@H](CCCN=C(N)N)NC(=O)C(Cc3ccccc3)NC(=O)[C@H](Cc3c[nH]cn3)NC(=O)[C@@H](CC(=O)NCCCC[C@H](C(=O)N3CCC[C@@H]3C(=O)N[C@H](C(N)=O)C(C)C)NC2=O)NC1=O (stereo in doubt),2.5,33,,0.03,Potency [12]: 0.04

# More lines, main results first:
EC50 [2] [nM],EC50 [4] [nM],Structure (SMILES),Potency [3],Potency [5],also measured
0.1,,CCCC[C@H](NC(C)=O)C(=O)N[C@@H]1CC(=O)NCCCC[C@H](C(N)=O)NC(=O)C(C)(C)NC(=O)[C@@H](Cc2c[nH]c3ccccc23)NC(=O)[C@H](CCCN=C(N)N)NC(=O)[C@@H](Cc2ccccc2)NC(=O)[C@@H](Cc2c[nH]cn2)NC1=O,,,Potency [1]: 1
28,400,CC(=O)N[C@@H]1CSSC[C@H]2NC(=O)[C@@H](Cc3c[nH]c4ccccc34)NC(=O)[C@H](CCCN=C(N)N)NC(=O)[C@H](Cc3ccccc3)NC(=O)[C@H](Cc3c[nH]cn3)NC(=O)[C@@H](CCC(=O)NCCCC[C@@H](C(N)=O)NC2=O)NC1=O,0.0035,0.0025,
6,33,CC(=O)N[C@@H]1CSSC[C@H]2NC(=O)[C@@H](Cc3c[nH]c4ccccc34)NC(=O)[C@H](CCCN=C(N)N)NC(=O)[C@H](Cc3ccccc3)NC(=O)[C@H](Cc3c[nH]cn3)NC(=O)[C@@H](CC(=O)NCCCC[C@@H](C(N)=O)NC2=O)NC1=O,,0.03,Potency [11]: 0.018
0.04,0.3,CC(=O)N[C@@H]1CSSC[C@H](C(=O)N[C@H](CCCCN)C(N)=O)NC(=O)[C@@H](Cc2c[nH]c3ccccc23)NC(=O)[C@H](CCCN=C(N)N)NC(=O)C(Cc2ccccc2)NC(=O)[C@H](Cc2c[nH]cn2)NC(=O)[C@@H](CCC(=O)O)NC1=O (stereo in doubt),2.5,,Potency [6]: 3
33,33,CC(=O)N[C@@H]1CSSC[C@@H](C(N)=O)NC(=O)[C@@H]2CCCCNC(=O)C[C@@H](NC1=O)C(=O)N[C@@H](Cc1c[nH]cn1)C(=O)N[C@H](Cc1ccccc1)C(=O)N[C@@H](CCCN=C(N)N)C(=O)N[C@H](Cc1c[nH]c3ccccc13)C(=O)N2,,0.03,Potency [12]: 0.003
